Earlier results as cited in patent publication US20060057232A1, “Method of altering age perception” (priority 2004, published 2006).

Tested on: sensitivity of observers to light
Details: (26)

Compound: c1ccncc1 [pyridine]
- effect on sensitivity of observers to light: increase sensitivity of observers to light
